In PubChem BioAssay (NCI):
Where “and” joins values, the source holds several entries; their conditions need not be identical. Identical values can stand only once.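 Dose response: 5 concentrations. Exposure: 48 h. Format: 96-well plates. Endpoint: linear interpolation; highest concentration if not reached. GI50 marks 50% less growth. At the TGI there is no net growth.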

The compounds below were run on DMS 114 small cell lung (assay: inhibition of tumour cell growth, NCI panel, 48 h).

| Structure (SMILES) | TGI | GI50 |
| --- | --- | --- |
| CC(C)N(C(=O)C12C3C4C5(C#N)C3C1(C#N)C5C42I)C(C)C (configuration not stated) | > 64.5 µM | – |
| C=COCCCOc1ccccc1 | > 100 µM | – |
| COc1ccc2c3c([nH]c2c1[N+](=O)[O-])C(C)=NCC3 | > 100 µM | – |
| C=C(c1nc2ccc(Cl)cc2[nH]c1=O)C(O)c1ccc(C(O)C(=O)c2nc3ccc(Cl)cc3[nH]c2=O)cc1 (configuration not stated) | > 100 µM | – |
| CC(C)(C)CC(C)(C)c1cc2c(O)c(c1)Cc1cc(C(C)(C)CC(C)(C)C)cc(c1O)Cc1cc(C(C)(C)CC(C)(C)C)cc(c1O)Cc1cc(C(C)(C)CC(C)(C)C)cc(c1O)C2 | > 100 µM | – |
| Cc1cc([N+](=O)[O-])ccc1Nc1cccc(Cl)c1C | 28.9 µM | – |
| CC1=C(C(=O)Nc2ccccc2)C(c2ccccc2)C(C(=O)Nc2ccccc2)=C(C)N1 | > 100 µM | – |
| Cc1nn(-c2ccccc2)c2nc(N3CCOCC3)nnc12 | > 100 µM | – |
| CNC(=O)N(C)N=NCCCl | > 100 µM | – |
| CCOc1ccccc1C=C1c2ccccc2C(=O)c2ccccc21 | 15.9 µM | – |
| O=C(CCn1[nH]c(=O)c(Cl)c(Cl)c1=O)NO | > 100 µM | – |
| [N-]=[N+]=NC12CC3C4CC5CC3C(C1)C(C5)C4C2 | > 100 µM | – |
| CN(C)c1nc2ccccc2[nH]1 | > 100 µM | – |
| NNC(=S)N/N=C(\CC1OC(=O)c2ccccc21)c1ccccc1O (configuration not stated) | > 100 µM | – |
| COC(=O)C1=C(O)c2cc(OC)c(OC)cc2C(c2ccc(OC)c(OC)c2)C1 (configuration not stated) | > 100 µM | – |
| O=C1c2cccc(NCCCNCCO)c2C(=O)c2cccc(NCCCNCCO)c21 | 1.92 µM and 4.77 µM | 476 nM and 1240 nM |
| COC1(OC)CC2C(=O)N(Cc3ccccc3)C1C(S(=O)(=O)c1ccccc1)C2S(=O)(=O)c1ccccc1 (configuration not stated) | 16 µM | – |
| Cc1cc(CC(O)c2ccc(Cl)c(Cl)c2)nc(=O)[nH]1 (configuration not stated) | 26.8 µM | – |
| COC(=O)C(=Cc1cc(OC)ccc1OC)C(=O)OC | 53.1 µM | – |
| CC1=NNC(=O)C2CCC(=O)N12 (configuration not stated) | > 100 µM | – |
| CC(C)c1ccccc1NC(=O)CCc1n[nH]c(=S)o1 | > 100 µM | – |
| CCCCC(C(=O)C(=O)NC1C2CC3CC(C2)CC1C3)C(=O)C(C)C (configuration not stated) | > 100 µM | – |
| COC(=O)c1cc2c(s1)C(=O)c1ccccc1-2 | > 100 µM | – |
| Cn1c2c(c3ccccc31)C1CCCCCCC1C1C(=O)OC(=O)C21 (configuration not stated) | 75.2 µM | – |
| COc1ccc(C(=O)C(c2ccc(OC)cc2)C2(O)C(=O)Nc3ccc([N+](=O)[O-])cc32)cc1 (configuration not stated) | > 100 µM | – |
| O=C(/C=C/c1ccccc1O)c1ccccc1O | > 100 µM | – |
| N#CC(N)(C(=O)CCC(=O)Nc1cccc(Cl)c1)c1ccc(Cl)cc1 (configuration not stated) | > 100 µM | – |
| CC(CCC=O)CCOCc1ccccc1 (configuration not stated) | > 100 µM | – |
| S=C(Nc1ccccc1)N(/N=C/C=C/c1ccccc1)c1nnc(-c2ccccc2)c(-c2ccccc2)n1 | > 100 µM | – |

Each compound was assayed on EKVX NSCLC (assay: inhibition of tumour cell growth, NCI panel, 48 h).

| Structure (SMILES) | TGI | GI50 |
| --- | --- | --- |
| CC(C)N(C(=O)C12C3C4C5(C#N)C3C1(C#N)C5C42I)C(C)C (configuration not stated) | > 100 µM | – |
| C=COCCCOc1ccccc1 | > 100 µM | – |
| COc1ccc2c3c([nH]c2c1[N+](=O)[O-])C(C)=NCC3 | > 100 µM | – |
| C=C(c1nc2ccc(Cl)cc2[nH]c1=O)C(O)c1ccc(C(O)C(=O)c2nc3ccc(Cl)cc3[nH]c2=O)cc1 (configuration not stated) | > 100 µM | – |
| CC(C)(C)CC(C)(C)c1cc2c(O)c(c1)Cc1cc(C(C)(C)CC(C)(C)C)cc(c1O)Cc1cc(C(C)(C)CC(C)(C)C)cc(c1O)Cc1cc(C(C)(C)CC(C)(C)C)cc(c1O)C2 | > 100 µM | – |
| Cc1cc([N+](=O)[O-])ccc1Nc1cccc(Cl)c1C | 49.8 µM | – |
| CC1=C(C(=O)Nc2ccccc2)C(c2ccccc2)C(C(=O)Nc2ccccc2)=C(C)N1 | > 100 µM | – |
| Cc1nn(-c2ccccc2)c2nc(N3CCOCC3)nnc12 | > 100 µM | – |
| CNC(=O)N(C)N=NCCCl | > 100 µM | – |
| CCOc1ccccc1C=C1c2ccccc2C(=O)c2ccccc21 | 61.4 µM | – |
| O=C(CCn1[nH]c(=O)c(Cl)c(Cl)c1=O)NO | > 100 µM | – |
| [N-]=[N+]=NC12CC3C4CC5CC3C(C1)C(C5)C4C2 | > 100 µM | – |
| CN(C)c1nc2ccccc2[nH]1 | > 100 µM | – |
| NNC(=S)N/N=C(\CC1OC(=O)c2ccccc21)c1ccccc1O (configuration not stated) | > 100 µM | – |
| COC(=O)C1=C(O)c2cc(OC)c(OC)cc2C(c2ccc(OC)c(OC)c2)C1 (configuration not stated) | > 100 µM | – |
| O=C1c2cccc(NCCCNCCO)c2C(=O)c2cccc(NCCCNCCO)c21 | 6.24 µM and 9.38 µM | – |
| Cc1cc(CC(O)c2ccc(Cl)c(Cl)c2)nc(=O)[nH]1 (configuration not stated) | 96.7 µM | – |
| COC(=O)C(=Cc1cc(OC)ccc1OC)C(=O)OC | 72.2 µM | – |
| CC1=NNC(=O)C2CCC(=O)N12 (configuration not stated) | > 100 µM | – |
| CC(C)c1ccccc1NC(=O)CCc1n[nH]c(=S)o1 | > 100 µM | – |

| Structure (SMILES) | TGI | GI50 |
| --- | --- | --- |
| CCCCC(C(=O)C(=O)NC1C2CC3CC(C2)CC1C3)C(=O)C(C)C (configuration not stated) | > 100 µM | – |
| COC(=O)c1cc2c(s1)C(=O)c1ccccc1-2 | > 100 µM | – |
| Cn1c2c(c3ccccc31)C1CCCCCCC1C1C(=O)OC(=O)C21 (configuration not stated) | > 100 µM | – |
| Cc1ccc(S(=O)(=O)N(CC(=O)O)c2ccccc2)cc1 | > 100 µM | – |
| COc1ccc(C(=O)C(c2ccc(OC)cc2)C2(O)C(=O)Nc3ccc([N+](=O)[O-])cc32)cc1 (configuration not stated) | > 100 µM | – |
| O=C(/C=C/c1ccccc1O)c1ccccc1O | > 100 µM | – |
| CCn1c(-c2nonc2N)nc2c(C#CC(C)(C)O)nc(OC[C@H](N)c3ccccc3)cc21 | 18.1 µM | 10800 nM |
| O=C1/C(=C/c2ccc(Br)cc2)COc2ccc(O)c(O)c21 | 3.14 µM | 1450 nM |
| N#Cc1c(NN)n(C2OC(CO)C(O)C2O)c2ncnc(N)c12 (configuration not stated) | – | 209 nM |
| CCCCCCNC(=O)c1cc(NCc2cc(O)ccc2O)ccc1O | 25.2 µM | 7690 nM |
| N#CC(N)(C(=O)CCC(=O)Nc1cccc(Cl)c1)c1ccc(Cl)cc1 (configuration not stated) | > 100 µM | – |
| CC(CCC=O)CCOCc1ccccc1 (configuration not stated) | > 100 µM | – |
| O=C(Nc1nc2ccc(C(F)(F)F)cc2s1)c1cc(Cl)ccc1O | 39 µM | 370 nM |
| S=C(Nc1ccccc1)N(/N=C/C=C/c1ccccc1)c1nnc(-c2ccccc2)c(-c2ccccc2)n1 | > 100 µM | – |
| COc1ccc2c(c1)CCCC(Br)C2=O (configuration not stated) | 37.2 µM | – |
| COc1ccc(-n2cc(-c3cc(OC)c(OC)c(OC)c3)c(C(=O)C(F)(F)F)c2C)cc1 | > 100 µM | 13900 nM |
| COc1cc(C2CC(c3cccc(Br)c3)=NN2C(C)=O)cc(OC)c1OC (configuration not stated) | > 100 µM | 1480 nM |
| COc1cc(N(CCC#N)CCC#N)ccc1/C(N=Nc1ccc([N+](=O)[O-])cc1)=N/NC(=O)c1cc(Br)ccc1O | > 150 µg/mL | 42.8 µg/mL |
| CS(=O)(=O)Nc1ccc2c(c1)oc(=O)c1ccccc12 | > 100 µM | – |

What follows are compounds tested on HT29 colon (assay: inhibition of tumour cell growth, NCI panel, 48 h).

| Structure (SMILES) | TGI | GI50 |
| --- | --- | --- |
| CC(C)N(C(=O)C12C3C4C5(C#N)C3C1(C#N)C5C42I)C(C)C (configuration not stated) | > 100 µM | – |
| C=COCCCOc1ccccc1 | > 100 µM | – |
| COc1ccc2c3c([nH]c2c1[N+](=O)[O-])C(C)=NCC3 | > 100 µM | – |
| C=C(c1nc2ccc(Cl)cc2[nH]c1=O)C(O)c1ccc(C(O)C(=O)c2nc3ccc(Cl)cc3[nH]c2=O)cc1 (configuration not stated) | > 100 µM | – |
| CC(C)(C)CC(C)(C)c1cc2c(O)c(c1)Cc1cc(C(C)(C)CC(C)(C)C)cc(c1O)Cc1cc(C(C)(C)CC(C)(C)C)cc(c1O)Cc1cc(C(C)(C)CC(C)(C)C)cc(c1O)C2 | > 100 µM | – |
| Cc1cc([N+](=O)[O-])ccc1Nc1cccc(Cl)c1C | 32 µM | – |
| CC1=C(C(=O)Nc2ccccc2)C(c2ccccc2)C(C(=O)Nc2ccccc2)=C(C)N1 | > 100 µM | – |
| Cc1nn(-c2ccccc2)c2nc(N3CCOCC3)nnc12 | > 100 µM | – |
| CNC(=O)N(C)N=NCCCl | > 100 µM | – |
| O=C(CCn1[nH]c(=O)c(Cl)c(Cl)c1=O)NO | > 100 µM | – |
| [N-]=[N+]=NC12CC3C4CC5CC3C(C1)C(C5)C4C2 | > 100 µM | – |
| CN(C)c1nc2ccccc2[nH]1 | > 100 µM | – |
| NNC(=S)N/N=C(\CC1OC(=O)c2ccccc21)c1ccccc1O (configuration not stated) | > 100 µM | – |
| COC(=O)C1=C(O)c2cc(OC)c(OC)cc2C(c2ccc(OC)c(OC)c2)C1 (configuration not stated) | > 100 µM | – |
| O=C1c2cccc(NCCCNCCO)c2C(=O)c2cccc(NCCCNCCO)c21 | 4.43 µM and 5.38 µM | – |
| COC1(OC)CC2C(=O)N(Cc3ccccc3)C1C(S(=O)(=O)c1ccccc1)C2S(=O)(=O)c1ccccc1 (configuration not stated) | 28.4 µM | – |
| Cc1cc(CC(O)c2ccc(Cl)c(Cl)c2)nc(=O)[nH]1 (configuration not stated) | > 100 µM | – |
| COC(=O)C(=Cc1cc(OC)ccc1OC)C(=O)OC | 56.5 µM | – |
| CC(C)c1ccccc1NC(=O)CCc1n[nH]c(=S)o1 | > 100 µM | – |
| CCCCC(C(=O)C(=O)NC1C2CC3CC(C2)CC1C3)C(=O)C(C)C (configuration not stated) | > 100 µM | – |
| Cn1c2c(c3ccccc31)C1CCCCCCC1C1C(=O)OC(=O)C21 (configuration not stated) | > 100 µM | – |
| Cc1ccc(S(=O)(=O)N(CC(=O)O)c2ccccc2)cc1 | > 100 µM | – |
| COc1ccc(C(=O)C(c2ccc(OC)cc2)C2(O)C(=O)Nc3ccc([N+](=O)[O-])cc32)cc1 (configuration not stated) | > 100 µM | – |
| O=C(/C=C/c1ccccc1O)c1ccccc1O | > 100 µM | – |
| CCn1c(-c2nonc2N)nc2c(C#CC(C)(C)O)nc(OC[C@H](N)c3ccccc3)cc21 | 8.81 µM | 4.11 µM |
